Holding throughout (type): in vivo
Test [1] has as its system male ICR mouse. Kind of test: Acetic acid-induced writhing test in mouse. As to conditions: po, p.o, acetic acid i.p. 1 hour after dosing, writhing counted for 10 minutes, read-out: Writhing Test Suppression of pain response. How it is done:
An acetic acid-induced writhing test is one of models for measuring an analgesic effect of drugs. A test material dissolved in a suitable vehicle was orally administered to a male ICR mouse weighing 30 to 35 g at an amount of 10 mg/kg. After 1 hour of the oral administration, […] of an aqueous 0.8% acetic acid solution was intraperitoneally injected into the male ICR mouse to induce the abdominal pain of the male ICR mouse. Right after the administration of acetic acid, the male ICR mouse was put into an empty cage, and the number of writhing behaviors of the mice was counted for 10 minutes. The term “writhing” represents a reflex action in which the mouse overtly extends its abdomen by stretching its hind legs due to the abdominal pain. The analgesic effect of the test material is represented by the ‘suppression of pain response’ {[(Writhing number of vehicle-administered group−Writhing number of Test material—administered group)/(Writhing number of Solvent-administered group)]×100%}.

The test system of test [2] is male ICR mouse. In words: Hot plate test in mouse. To be noted: po, p.o, 1 hour after dosing, hot plate 55° C., read-out: Hot Plate Test Increase in latency of avoidance response. As for the experimental part: A hot plate test is one of representative models for measuring an analgesic effect of drugs. A test material dissolved in a suitable vehicle was orally administered to a male ICR mouse weighing 25 to 30 g at an amount of 30 mg/kg. After 1 hour of the oral administration, the mouse was put on a hot plate (55° C.). A latency was recorded from the time right after a mouse is put on a hot plate to the time when avoidance responses (flinching, licking, jumping, etc.) to pain are observed from forefeet or rear legs of the mouse. The analgesic effect of the test material is represented by the ‘Increase in latency of avoidance response’ {[(Latency of avoidance response to pain of Test material-administered group−Latency of avoidance response to pain of vehicle-administered group)/(Latency of avoidance response to pain of Solvent-administered group)]×100%}.
(In general: Hot-plate and tail-flick tests time the reaction to a heat stimulus.)

Test [3] relates to male ICR mouse. Kind of test: Elevated plus maze (EPM) test in mouse. To be noted: po, p.o, 1 hour after dosing, 5 minutes observation, read-out: Elevated Plus Maze Change index in Open-Arm Time. The text has this:
Elevated plus maze (EPM) is one of representative models that examine an anti-anxiety activity of a test material. Equipment used for an EPM test has a crossroad shape raised in a high position off the ground, and is configured in such a cliff shape that both sides of one road are protected with high walls and the other road is free from the wall. Among them, the road in the cliff shape is referred to as an ‘open arm,’ and the road protected by the walls is referred to as a ‘close arm.’ In this case, a level of the anxiety of a mouse may be measured by determining in which arm the mouse stays longer. In general, the mouse stays longer in the close arm than the open arm, but a mouse treated with a medicine showing an anti-anxiety effect stays relatively longer in the open arm. A test material dissolved in a suitable vehicle was orally administered to a male ICR mouse weighing 20 to 25 g at an amount of 10 mg/kg. After 1 hour of the oral administration, the mouse was put on the center of an EPM equipment to measure how long the mouse stays in the open arm within a time range of 5 minutes. The anti-anxiety effect of the test material is represented by the ‘Change index in Open-Arm Time’ {[(open arm duration in test material-administered group−open arm duration in vehicle-administered group)/(open arm duration in vehicle administered group)]×100%}.

The subject of test [4] is male ICR mouse. Kind of test: Head twitch potentiation induced by 5-HTP (5-HTP potentiation test) in mouse. As to conditions: po, 0.5 h, p.o, 5-HTP 80 mg/kg + Carbidopa 25 mg/kg i.p. 30 minutes after dosing, head twitches counted for 2 minutes, negative = 5-HT2A antagonist, read-out: 5-HTP Potentiation Increase rate in Head Twitch No. How it is done: When 5-hydroxy-L-tryptophan (5-HTP) is administered into a mouse, a head twitch phenomenon is observed since serotonin is increasingly secreted in the mouse. […] By using this principle, it is possible to search an effect of the representative antidepressant agent. A test material dissolved in a suitable vehicle was orally administered to a male ICR mouse weighing 20 to 25 g at an amount of 30 mg/kg. After 30 minutes of the oral administration, 5-HTP (80 mg/kg) and 5-HTP peripheral decarbozylase inhibitor ‘Carbidopa’ (25 mg/kg) were intraperitoneally administered to the mouse. After 30 minutes of the intraperitoneal administration, the mouse was put into an observation cage, and head twitches of the mouse were counted for 2 minutes. The anti-depression effect of the test material is represented by the ‘Increase rate in Head Twitch No.’ {[(Head Twitch No. of Test material-administered group−Head Twitch No. of vehicle-administered group)/(Head Twitch No. of vehicle-administered group)]×100%}. […] In addition to the selective serotonin reuptake inhibitor (SSRI) that has been widely used as an antidepressant agent in the clinical fields, it was tested that 5-HT2A antagonists such as nefazodone and trazodone also have an antidepressant effect.

Structures can show the parent of a compound that is named as a salt.

Consider `NC(=O)OC(CC(=O)N1CCN(c2ccccc2)CC1)c1ccc([N+](=O)[O-])cc1` (stereo not shown) [Example 34, carbamic acid 1-(4-nitro-phenyl)-3-oxo-3-(4-phenyl-piperazin-1-yl)-propyl ester], for which the inhibition in vivo at 10 mg/kg in the test on male ICR mouse [1] turned out to be 38.4%. Further, the figures for the change in vivo at 30 mg/kg in the test on male ICR mouse [2] and with male ICR mouse [4] were 0.6% and 2.9%, respectively. In addition, the change in vivo at 10 mg/kg with male ICR mouse [3] was 6.5%.
Take `COc1ccc(N2CCN(C(=O)C[C@@H](OC(N)=O)c3ccccc3)CC2)cc1` [Example 70, (R)-carbamic acid 3-[4-(4-methoxy-phenyl)-piperazin-1-yl]-3-oxo-1-phenyl-propyl ester]: in the test with male ICR mouse [1], the inhibition in vivo at 10 mg/kg was 59.8%. Besides, the change in vivo at 30 mg/kg in the test with male ICR mouse [2] was determined as 30.6%; in the test with male ICR mouse [4], 87.9%. Moreover, in the test on male ICR mouse [3], the change in vivo at 10 mg/kg is 109%.
In the case of `COc1ccc(N2CCN(C(=O)CC(OC(N)=O)c3ccc(C(F)(F)F)cc3)CC2)cc1OC` (stereo not shown) [Example 35, carbamic acid 3-[4-(3,4-dimethoxy-phenyl)-piperazin-1-yl]-3-oxo-1-(4-trifluoromethyl-phenyl)-propyl ester; hydrochloride], the inhibition in vivo at 10 mg/kg with male ICR mouse [1] was 33.8%. In addition, the change in vivo at 30 mg/kg was determined as 32.8% in the test with male ICR mouse [2] and 64.3% in the test on male ICR mouse [4]. For the same compound, the change in vivo at 10 mg/kg in the test with male ICR mouse [3] amounted to 44%.
Taken in the same sequence, the figures for `NC(=O)OC(CC(=O)N1CCN(c2ccccc2)CC1)c1ccoc1` (stereo not shown) [Example 49, carbamic acid-1-furan-3-yl-3-oxo-3-(4-phenyl-piperazin-1-yl)-propyl ester] were 34.4%, 20.6%, -20% and 48.9%.
Consider `NC(=O)O[C@@H](CC(=O)N1CCN(c2ccc(F)c(F)c2)CC1)c1ccccc1` [Example 64, (S)-carbamic acid 3-[4-(3,4-difluoro-phenyl)-piperazin-1-yl]-3-oxo-1-phenyl-propyl ester], for which the inhibition in vivo at 10 mg/kg in the test with male ICR mouse [1] was 41.1%. Also, the change in vivo at 30 mg/kg is 33% in the test with male ICR mouse [2] and 134% in the test on male ICR mouse [4]. Moreover, the change in vivo at 10 mg/kg in the test on male ICR mouse [3] was found to be 125%.
On to `NC(=O)OC(CC(=O)N1CCN(c2ccccc2)CC1)c1cc(C(F)(F)F)cc(C(F)(F)F)c1` (stereo not shown) [Example 55, carbamic acid 1-(3,5-trifluoromethyl-phenyl)-3-oxo-3-(4-phenyl-piperazin-1-yl)-propyl ester], for which the inhibition in vivo at 10 mg/kg in the test with male ICR mouse [1] stood at 32.8%. Besides, the figures for the change in vivo at 30 mg/kg in the test on male ICR mouse [2] and with male ICR mouse [4] were 13.9% and 22.5%, respectively. In addition, in the test on male ICR mouse [3], the change in vivo at 10 mg/kg is 13.8%.
With `NC(=O)O[C@H](CC(=O)N1CCN(c2ccc(F)c(F)c2)CC1)c1ccccc1` [Example 67, (R)-carbamic acid 3-[4-(3,4-difluoro-phenyl)-piperazin-1-yl]-3-oxo-1-phenyl-propyl ester], in the test on male ICR mouse [1], the inhibition in vivo at 10 mg/kg is 45.1%. Further, the values for the change in vivo at 30 mg/kg with male ICR mouse [2] and in the test on male ICR mouse [4] were 34.3% and 58.8%, respectively. For the same compound, the change in vivo at 10 mg/kg in the test with male ICR mouse [3] is 34.3%.
`NC(=O)O[C@@H](CC(=O)N1CCN(c2ccc(Cl)cc2)CC1)c1ccccc1` [Example 85, (S)-carbamic acid 3-[4-(4-chloro)-phenylpiperazin-1-yl]-3-oxo-1-phenyl-propyl ester]: in the test with male ICR mouse [1], the inhibition in vivo at 10 mg/kg was determined as 52%. The change in vivo at 30 mg/kg was determined as 25.3% in the test with male ICR mouse [2] and 222% with male ICR mouse [4]. Also, in the test with male ICR mouse [3], the change in vivo at 10 mg/kg came out at 37%.
Turning to `NC(=O)OC(CC(=O)N1CCN(c2ccc(F)cc2F)CC1)c1ccccc1` (stereo not shown) [Example 13, carbamic acid 3-[4-(2,4-difluoro-phenyl)-piperazin-1-yl]-3-oxo-1-phenyl-propyl ester], the inhibition in vivo at 10 mg/kg with male ICR mouse [1] is 64%. Moreover, the change in vivo at 30 mg/kg with male ICR mouse [2] is 21.4%; in the test with male ICR mouse [4], -60%. In addition, the change in vivo at 10 mg/kg with male ICR mouse [3] amounted to 12.6%.
Take `NC(=O)OC(CC(=O)N1CCN(c2ccc(C(F)(F)F)cc2)CC1)c1ccccc1` (stereo not shown) [Example 28, carbamic acid 3-oxo-1-phenyl-3-[4-(4-trifluoromethyl-phenyl)-piperazin-1-yl]-propyl ester]: the inhibition in vivo at 10 mg/kg in the test with male ICR mouse [1] is 55.6%. In addition, the change in vivo at 30 mg/kg in the test with male ICR mouse [2] was 3.1%; in the test with male ICR mouse [4], -12.5%. In the test on male ICR mouse [3], the change in vivo at 10 mg/kg was -1.4%.
Consider `Cc1ccc(C(CC(=O)N2CCN(c3ccccc3)CC2)OC(N)=O)cc1` (stereo not shown) [Example 32, carbamic acid 3-oxo-3-(4-phenyl-piperazin-1-yl)-1-p-tolyl-propyl ester], for which the inhibition in vivo at 10 mg/kg in the test with male ICR mouse [1] came to 6%. Moreover, the change in vivo at 30 mg/kg with male ICR mouse [2] was 28.2%; in the test with male ICR mouse [4], -40%. Further, the change in vivo at 10 mg/kg with male ICR mouse [3] is 9.5%.
Taken in the same sequence, the figures for `NC(=O)OC(CC(=O)N1CCN(c2ccc(F)cc2)CC1)c1ccccc1` (stereo not shown) [Example 1, carbamic acid 3-[4-(4-fluoro-phenyl)-piperazin-1-yl]-3-oxo-1-phenyl-propyl ester] were 73.5%, 17%, -65.7% and 25.6%.
On to `Cc1ccc(N2CCN(C(=O)CC(OC(N)=O)c3ccccc3)CC2)cc1C` (stereo not shown) [Example 20, carbamic acid 3-[4-(3,4-dimethyl-phenyl)-piperazin-1-yl]-3-oxo-1-phenyl-propyl ester], for which the inhibition in vivo at 10 mg/kg in the test on male ICR mouse [1] amounted to 14.6%. The change in vivo at 30 mg/kg in the test with male ICR mouse [2] was 45.4%; in the test on male ICR mouse [4] it was -6.3%. The change in vivo at 10 mg/kg in the test with male ICR mouse [3] was found to be 45.4%.
For `Cc1ccc(N2CCN(C(=O)CC(OC(N)=O)c3ccccc3)CC2)cc1` (stereo not shown) [Example 4, carbamic acid 3-oxo-1-phenyl-3-(4-p-tolyl-piperazin-1-yl)-propyl ester], the inhibition in vivo at 10 mg/kg in the test with male ICR mouse [1] turned out to be 74.6%. For the same compound, the change in vivo at 30 mg/kg with male ICR mouse [2] is 34.1%; in the test with male ICR mouse [4] it was -7.1%. The change in vivo at 10 mg/kg with male ICR mouse [3] was determined as 41.1%.
The matching figures for `Cc1ccc(N2CCN(C(=O)C[C@H](OC(N)=O)c3ccccc3)CC2)cc1` [Example 81, (S)-carbamic acid 3-[4-(4-methyl)-phenylpiperazin-1-yl]-3-oxo-1-phenyl-propyl ester]: 20.1%, 9.2%, -21.4% and 23%.
As to `NC(=O)OC(CC(=O)N1CCN(c2cccc(Cl)c2Cl)CC1)c1ccccc1` (stereo not shown) [Example 12, carbamic acid 3-[4-(2,3-dichloro-phenyl)-piperazin-1-yl]-3-oxo-1-phenyl-propyl ester], in the test with male ICR mouse [1], the inhibition in vivo at 10 mg/kg came to 37%. Moreover, the change in vivo at 30 mg/kg in the test on male ICR mouse [2] was 46.8%; with male ICR mouse [4] it was 10%. Besides, the change in vivo at 10 mg/kg in the test on male ICR mouse [3] was 41.1%.
